Laboratory results from US8399521B2, “Methods of treating skin with aromatic skin-active ingredients” (Mary Kay Inc., priority 2008, dated 2013).

Columns and labels:
Format in all cases: biochemical
[1] = biological target: T1, COX-2 (Ovis aries, UniProt P79208); experiment: Colorimetric COX (ovine) inhibitor screening assay, COX-2; settings: 0.001% test compound; for Cox-2 Inhibition (0.001%): negative = inhibition vs non-treated control; for inhibition at 0.001 %: 0.25 h
T1 construct: purchased Cayman Chemical 760111
T1 sequence (P79208 17-603): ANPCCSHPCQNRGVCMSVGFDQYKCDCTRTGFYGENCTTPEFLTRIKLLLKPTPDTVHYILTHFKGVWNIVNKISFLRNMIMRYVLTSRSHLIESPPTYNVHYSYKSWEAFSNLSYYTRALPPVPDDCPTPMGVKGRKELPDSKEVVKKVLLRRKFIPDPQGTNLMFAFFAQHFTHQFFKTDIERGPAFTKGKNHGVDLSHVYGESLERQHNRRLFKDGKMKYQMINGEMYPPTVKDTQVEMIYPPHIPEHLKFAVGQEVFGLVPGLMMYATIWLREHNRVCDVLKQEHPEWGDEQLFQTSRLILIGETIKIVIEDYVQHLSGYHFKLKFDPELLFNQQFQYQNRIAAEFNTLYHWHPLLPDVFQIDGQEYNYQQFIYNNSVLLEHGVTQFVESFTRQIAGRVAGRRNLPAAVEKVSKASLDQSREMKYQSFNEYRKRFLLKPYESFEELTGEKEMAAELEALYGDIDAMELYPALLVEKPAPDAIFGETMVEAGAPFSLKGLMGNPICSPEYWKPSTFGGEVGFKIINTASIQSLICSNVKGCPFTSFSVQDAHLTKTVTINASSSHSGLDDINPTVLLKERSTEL
From the text: (§1) Cyclooxygenase (COX) assay: An in vitro cyclooxygenase-1 and -2 (COX-1, -2) inhibition assay. […] The cyclooxygenase activity converts arachidonic acid to a hydroperoxy endoperoxide (Prostaglandin G2; PGG2) and the peroxidase component reduces the endoperoxide (Prostaglandin H2; PGH2) to the corresponding alcohol, the precursor of prostaglandins, thromboxanes, and prostacyclins. This COX Inhibitor Screening Assay measures the peroxidase component of cyclooxygenases. The peroxidase activity is assayed colorimetrically by monitoring the appearance of oxidized N,N,N′,N′-tetramethyl-p-phenylenediamine (TMPD). This inhibitor screening assay includes both COX-1 and COX-2 enzymes in order to screen isozyme-specific inhibitors.
(§2) Following manufacturer instructions for the Colormetric COX (ovine) Inhibitor screening assay (#760111, Cayman Chemical), purified cyclooxygnase enzyme (COX-1 or COX-2), heme and test compounds were mixed in assay buffer and incubated with shaking for 15 min at room temperature. Following incubation, arachidonic acid and colorimetric substrate were added to initiate the reaction and incubated for an additional 15 min at room temperature with shaking. Color progression was evaluated by fluoresecence plate reading at 590 nm. The percent inhibition of COX-1 or COX-2 activity was calculated compared to non-treated controls to determine the ability of test compounds to inhibit the activity of purified enzyme.

[2] = biological target: T2, COX-1 (Ovis aries, UniProt P05979); experiment: Colorimetric COX (ovine) inhibitor screening assay, COX-1; settings: negative = inhibition vs non-treated control; for Cox-1 Inhibition (0.020%): 0.020% test compound, Table 2
T2 construct: purchased Cayman Chemical 760111
T2 sequence (P05979 25-600): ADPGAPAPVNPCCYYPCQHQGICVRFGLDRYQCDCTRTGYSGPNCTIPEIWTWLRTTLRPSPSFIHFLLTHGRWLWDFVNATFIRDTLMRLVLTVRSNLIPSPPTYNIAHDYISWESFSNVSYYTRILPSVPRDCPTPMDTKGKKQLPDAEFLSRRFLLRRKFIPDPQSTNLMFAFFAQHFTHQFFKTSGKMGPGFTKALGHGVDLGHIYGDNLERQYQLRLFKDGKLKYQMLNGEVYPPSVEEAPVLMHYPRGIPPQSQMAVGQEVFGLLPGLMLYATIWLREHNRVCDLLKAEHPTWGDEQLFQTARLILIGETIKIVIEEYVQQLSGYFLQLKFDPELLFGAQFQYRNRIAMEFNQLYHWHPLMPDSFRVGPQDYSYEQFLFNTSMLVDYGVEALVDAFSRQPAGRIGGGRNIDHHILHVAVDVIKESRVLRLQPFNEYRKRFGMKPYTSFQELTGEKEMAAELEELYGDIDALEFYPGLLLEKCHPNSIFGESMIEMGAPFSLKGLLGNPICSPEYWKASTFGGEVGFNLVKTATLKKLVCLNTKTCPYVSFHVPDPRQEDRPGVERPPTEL
From the text: as §1, §2

[3] = biological target: T3, 15-lipoxygenase (Glycine max, UniProt P08170); experiment: Lipoxygenase (LO) inhibition assay; settings: 0.1% test compound; negative = inhibition vs non-treated control; Table 2
T3 construct: purchased Cayman Chemical 760700
T3 sequence (P08170 1-839): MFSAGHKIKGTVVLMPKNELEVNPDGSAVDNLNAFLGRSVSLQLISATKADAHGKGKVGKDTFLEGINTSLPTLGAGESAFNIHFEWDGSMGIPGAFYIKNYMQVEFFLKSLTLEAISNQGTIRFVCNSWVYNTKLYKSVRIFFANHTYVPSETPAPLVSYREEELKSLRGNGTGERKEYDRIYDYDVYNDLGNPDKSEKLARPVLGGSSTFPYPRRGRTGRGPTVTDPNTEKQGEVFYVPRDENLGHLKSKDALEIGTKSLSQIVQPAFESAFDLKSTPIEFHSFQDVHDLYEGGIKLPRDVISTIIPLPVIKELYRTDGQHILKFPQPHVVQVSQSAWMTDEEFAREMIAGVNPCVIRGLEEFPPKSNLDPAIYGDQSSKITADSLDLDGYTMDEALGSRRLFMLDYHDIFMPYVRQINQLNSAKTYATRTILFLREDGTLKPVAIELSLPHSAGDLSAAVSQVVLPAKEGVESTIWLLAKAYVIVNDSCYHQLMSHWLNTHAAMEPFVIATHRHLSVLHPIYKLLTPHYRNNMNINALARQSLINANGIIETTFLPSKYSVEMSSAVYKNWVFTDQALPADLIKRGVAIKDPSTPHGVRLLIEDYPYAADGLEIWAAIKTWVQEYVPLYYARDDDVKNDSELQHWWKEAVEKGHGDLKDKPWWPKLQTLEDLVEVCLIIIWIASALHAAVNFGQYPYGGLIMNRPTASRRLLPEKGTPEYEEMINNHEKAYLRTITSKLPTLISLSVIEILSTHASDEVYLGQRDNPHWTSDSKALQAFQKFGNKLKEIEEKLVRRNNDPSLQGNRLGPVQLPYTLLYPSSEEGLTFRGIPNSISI
Procedure: Lipoxygenase (LO) assay: An in vitro lipoxygenase (LO) inhibition assay. LOs are non-heme iron-containing dioxygenases that catalyze the addition of molecular oxygen to fatty acids. Linoleate and arachidonate are the main substrates for LOs in plants and animals. […] This assay provides an accurate and convenient method for screening lipoxygenase inhibitors by measuring the hydroperoxides generated from the incubation of a lipoxygenase (5-, 12-, or 15-LO) with arachidonic acid.
Following incubation, arachidonic acid was added to initiate the reaction and mixtures incubated for an additional 10 min at room temperature. Colorimetric substrate was added to terminate catalysis and color progression was evaluated by fluorescence plate reading at 490 nm. The percent inhibition of lipoxyganse activity was calculated compared to non-treated controls to determine the ability of test compounds to inhibit the activity of purified enzyme.

[4] = biological target: T4, MMP3 (Homo sapiens, UniProt P08254); experiment: Matrix metalloproteinase enzyme activity assay, MMP3; settings: 0.001% test compound; negative = inhibition vs diluent control; Table 2
T4 construct: purchased BioMol International AK-400
T4 sequence (P08254 100-272 limits assumed): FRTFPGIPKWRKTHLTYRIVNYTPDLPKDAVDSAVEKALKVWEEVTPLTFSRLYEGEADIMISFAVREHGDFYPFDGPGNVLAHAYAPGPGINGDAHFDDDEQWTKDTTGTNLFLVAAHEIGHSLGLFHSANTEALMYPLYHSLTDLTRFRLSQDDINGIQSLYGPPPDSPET
From the text: (§3) Matrix metalloproteinase enzyme activity (MMP3; MMP9) assay: An in vitro matrix metalloprotease (MMP) inhibition assay. MMPs are extracellular proteases that play a role in many normal and disease states by virtue of their broad substrate specificity. MMP3 substrates include collagens, fibronectins, and laminin; while MMP9 substrates include collagen VII, fibronectins and laminin. Using Colorimetric Drug Discovery kits from BioMol International for MMP3 (AK-400) and MMP-9 (AK-410), this assay is designed to measure protease activity of MMPs using a thiopeptide as a chromogenic substrate (Ac-PLG-[2-mercapto-4-methyl-pentanoyl]-LG-OC2H5)5,6. The MMP cleavage site peptide bond is replaced by a thioester bond in the thiopeptide. Hydrolysis of this bond by an MMP produces a sulfhydryl group, which reacts with DTNB [5,5′-dithiobis(2-nitrobenzoic acid), Ellman's reagent] to form 2-nitro-5-thiobenzoic acid, which can be detected by its absorbance at 412 nm (ε=13,600 M-1 cm-1 at pH 6.0 and above 7). Data is reflected as % inhibition of the purified enzyme activity.

[5] = biological target: T5, MMP9 (Homo sapiens, UniProt P14780); experiment: Matrix metalloproteinase enzyme activity assay, MMP9; settings: for MMP9 Inhibition (0.001%): 0.001% test compound, Table 2; for MMP9 Inhibition (0.001%) / MMP9 Inhibition (0.01%): negative = inhibition vs diluent control; for MMP9 Inhibition (0.01%) / inhibition at 0.01 %: 0.01% test compound, Table 3
T5 construct: purchased BioMol International AK-410
T5 sequence (P14780 107-444 limits assumed): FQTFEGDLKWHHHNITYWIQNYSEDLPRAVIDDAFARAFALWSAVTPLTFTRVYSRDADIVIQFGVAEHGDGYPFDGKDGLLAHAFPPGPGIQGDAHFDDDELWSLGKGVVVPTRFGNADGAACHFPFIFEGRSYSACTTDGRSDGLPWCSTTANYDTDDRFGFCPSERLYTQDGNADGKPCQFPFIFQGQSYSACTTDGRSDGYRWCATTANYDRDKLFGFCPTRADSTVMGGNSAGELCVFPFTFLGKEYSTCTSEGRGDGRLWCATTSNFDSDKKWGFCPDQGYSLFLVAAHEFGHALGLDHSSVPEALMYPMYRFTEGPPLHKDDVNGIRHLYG
From the text: as §3

Compound: 1-(1,2,3,4,5,6,7,8-octahydro-2,3,8,8-tetramethyl-2-naphthalenyl)ethan-1-one; 1-(2,3,8,8-tetramethyl-1,2,3,5,6,7,8,8a-octahydronaphthalen-2-yl)ethanone; and 1-(2,3,8,8-tetramethyl-1,2,3,4,6,7,8,8a-octahydronaphthalen-2-yl)ethanone [Iso E super]
- Cox-2 Inhibition (0.001%) ([1]; Table 3): −20.80%

Compound: 2,6-nonadien-1-al (trans, trans; trans, cis)
- Cox-1 Inhibition (0.020%) [2]: −11.42%
- Cox-2 Inhibition (0.001%) ([1]; Table 2): −17.58%
- LO Inhibition (0.1%) [3]: −45.58%
- MMP3 Inhibition (0.001%) [4]: −20.34%
- MMP9 Inhibition (0.001%) [5]: −32.53%

Compound: 3-hexen-1-ol (E) and (Z)
- Cox-2 Inhibition (0.001%) ([1]; Table 3): −23.56%
- MMP9 Inhibition (0.01%) [5]: −23.82%

Compound: 3a,4,5,6,7,7a-hexahydro-4,7-methano-1h-inden-5(or 6)-yl acetate [Cyclacet]
- LO Inhibition (0.1%) [3]: −26.37%

Compound: CCCC/C=C/C=C/C=O [2,4-nonadien-1-al]
- inhibition at 0.001 % ([1]; Table 2): 21.1%
- MMP3 Inhibition (0.001%) [4]: −23.75%
- MMP9 Inhibition (0.001%) [5]: −19.87%

Compound: CCCCCCCCC/C=C/C=O [2-dodecenal (E)]
- MMP9 Inhibition (0.001%) [5]: −24.98%

Compound: CC/C=C(\C)C(O)CCCCC (stereo not drawn) [4-methyl-3-decen-5-ol]
- inhibition at 0.01 % [5]: 28.1%

Compound: CCCCCCCCCCCC=O [Aldehyde C-12 Lauric, 1-dodecanal]
- MMP9 Inhibition (0.001%) [5]: −27.64%

Compound: CCCCCC1CCC(=O)O1 (stereo not drawn) [Aldehyde C-18, 5-pentyldihydrofuran-2(3H)-one]
- inhibition at 0.001 % ([1]; Table 3): 22.6%
- inhibition at 0.01 % [5]: 22.2%

Compound: CC(=O)/C=C/C1=C(C)CCCC1(C)C [Beta Ionone, (3E)-4-(2,6,6-trimethylcyclohex-1-en-1-yl)but-3-en-2-one]
- MMP9 Inhibition (0.001%) [5]: −19.82%

Compound: CC/C=C\CCCCC=O [Cis-6-Nonenal, cis-6-nonenal]
- inhibition at 0.001 % ([1]; Table 3): 27.1%
- inhibition at 0.01 % [5]: 19.2%

Compound: CC(=O)OCCC(C)CCC=C(C)C (stereo not drawn) [Citronellyl Acetate, 3,7-dimethyl-6-octen-1-yl acetate]
- Cox-1 Inhibition (0.001%) ([2]; 0.001% test compound, Table 4): −27.99%
- inhibition at 0.001 % ([1]; Table 4): 20.9%

Compound: O=C1CCCCCCCCCCCC(=O)OCCO1 [Ethylene Brassylate, 1,4-dioxacycloheptadecane-5,17-dione]
- inhibition at 0.001 % ([1]; Table 3): 20.6%
- inhibition at 0.01 % [5]: 33%

Compound: CCOC(=O)C1C2C=CC(C2)C1C(C)C (stereo not drawn) [Herbanante, ethyl 3-isopropylbicyclo[2.2.1]hept-5-ene-2-carboxylate]
- inhibition at 0.001 % ([1]; Table 3): 25.1%
- inhibition at 0.01 % [5]: 26.8%

Compound: CCC/C=C\COC(C)=O [Leaf Acetate, cis-2-hexenyl acetate]
- inhibition at 0.01 % [5]: 22%

Compound: CC(C)=CCCC(C)C=O (stereo not drawn) [Melanol, 2,6-dimethyl-5-heptenal]
- LO Inhibition (0.1%) [3]: −20.45%

Compound: CC1=CCC(/C=C/C(C)(C)C(C)O)C1(C)C (stereo not drawn) [Polysantol, 3,3-dimethyl-5(2,2,3-trimethyl-3-cyclopenten-1-yl)-4-penten-2-ol]
- inhibition at 0.001 % ([1]; Table 3): 36.1%

Compound: CC(C)=CCCC1=CCCC(C)(C=O)C1 (stereo not drawn) [Precyclemone B, 1-methyl-3-(4-methylpent-3-enyl)cyclohex-3-enecarbaldehyde]
- MMP3 Inhibition (0.001%) [4]: −25.09%

Compound: C=C1CCCC(C)(C)C1C(=O)OC (stereo not drawn) [Romascone ®, methyl 2,2-dimethyl-6-methylenecyclohexanecarboxylate]
- inhibition at 0.001 % ([1]; Table 3): 23.3%

Compound: CCC/C(CC(=O)CC)=N/O [Stemone, (Z)-5-(hydroxyimino)octan-3-one]
- inhibition at 0.001 % ([1]; Table 3): 22.3%

Compound: CC(=O)OC1CCC(C(C)(C)C)CC1 (stereo not drawn) [Vertenex ® H.C., 4-tert-butylcyclohexyl acetate]
- Cox-1 Inhibition (0.020%) [2]: −18.50%
- LO Inhibition (0.1%) [3]: −37.86%

Compound: (2,4,6-)trimethyl-3-cyclohexene-1-carboxaldehyde and (3,5,6-)trimethyl-3-cyclohexene-1-carboxaldehyde [Iso Cyclo Citral]
- Cox-2 Inhibition (0.001%) ([1]; Table 3): −31.58%
- MMP9 Inhibition (0.01%) [5]: −21.78%
